Like-named read-outs stand apart in the source and are kept apart here.
How the values were obtained:
[1] = test system: Gli1; assay: Gli1-Luciferase Reporter Assay (Shh Light 2 cells); type: cell-based, mouse
Experimental: Cell line: Shh Light 2 cell line which is based on NIH3T3 mouse fibroblast cell line genetically modified to stably express the Firefly Luciferase reporter gene under the transcription control of Gli 1 binding sequence and the Renila Luciferase gene under a control pRL-SV40 promoter was licensed from Johns Hopkins University (JHU).
Cell culture: Cells are cultured in Complete Medium [formulated as DMEM, 10% FBS, 1% sodium pyruvate, 1% L-glutamine, 0.4 mg/ml G418, 0.15 mg/ml Zeocin] until 80% confluence is achieved. Once sufficient confluency is achieved, cells are detached from the 10 cm culture dish using trypsin-EDTA, washed in Growth Medium [formulated as DMEM, 10% FBS, 1% sodium pyruvate, 1% L-glutamine, 1% PenStrep] and resuspended in fresh Growth Medium at a concentration of 4.3*10^5 cells/ml. To a white 96-well plate […] of cells suspension is transferred and incubated in a humified incubator at 37° C. with 5% CO2 overnight until the cells reach confluency the following day.
On the following day, a 13 point 1:1 dilution of a stock 20 mM Gli 1 inhibitor compound in DMSO is performed and […] of each diluted Gli1 inhibitor compound is diluted in […] Assay Medium [formulated as DMEM, 2% FBS, 1% sodium pyruvate, 1% L-glutamine, 1% PenStrep]. The Growth Medium is removed from the cell-plated 96-well plate and […] of the diluted Gli1 inhibitor is transferred to each well and plates are incubated at 37° C. and 5% CO2 for 30 minutes.
Then, the plates are removed from incubator and Purmorphamine (a Smoothened agonist to induce Hedgehog signaling and Gli1 activation in cells) at a final concentration of […] is added to each well and the plates are reinserted to the incubator for 24 hours incubation. The following day, Firefly and Renila Luciferase levels are measured using the Dual-Glo Luciferase system and the ratio between the Firefly and Renila is calculated for normalization of signal. The ratio of the signal in the treated cells is plotted vs. compound concentration and the IC50 value of each compound is calculated by generating a non-linear regression curve using the 4PL function in GraphPad Prism 8 software.
The primary screening assay is based on a NIH3T3 mouse fibroblast cell line genetically modified to stably express the Firefly Luciferase reporter gene under the transcription control of Gli1 binding sequence and the Renila Luciferase gene under a control pRL-SV40 promoter. This assay allows the determination of a compound's IC50 value in inhibiting Gli1 activity.

[2] = Pharmacokinetic Study; type: in vivo; details: for Cmax: in ng/mL (unit assumed)
Experimental: Compounds were formulated in 15% HP-b-CD in water (IV formulation was at pH=5.0 and PO was at pH=3.0). Blood was obtained from facial vein pre-dosing and at 0.083, 0.25, 0.5, 1, 2, 4, 8, 24 hours post dosing for a total of 9 time-points, semi-serial bleeding. For PO dosing, another group of animals (n=3) were terminated at 2 hours post dosing and brains were extracted to analyze brain exposure and calculate brain/plasma ratio. Lower limit of quantification (LLOQ) for brain and plasma samples was 1 ng/ml.

[3] = test system: EAE mouse model; assay: Efficacy EAE model, MOG35-55/CFA in C57B16 mice; type: in vivo; details: daily 10 mg/Kg, until Day 28, vs vehicle
Experimental: (§1) N=12 for all groups except for dexamethasone which had n=5 (FIG. 1B).
Thirteen-weeks old female C57B16 mice were immunized on Day 1 with an emulsion of MOG35-55/CFA and injected with pertussis toxin to induce disease. At the start of clinical signs (Days 9-10), the animals were daily administered with Glx-077, Glx-088P3, clemastine fumarate (at 10 mg/Kg) or vehicle (15% HP-β-CD in water) until completion of experiment (Day 28). Mice administered with dexamethasone were used as a positive control group. Clinical score of the mice was measured daily. A graph, summarizing the results of this experiment is represented in FIG. 1B.

[4] = test system: EAE mouse model; assay: Efficacy EAE model, PLP139-151/CFA in SJL/L mice; type: in vivo; details: daily 10 mg/Kg or 50 mg/Kg, until Day 57, vs vehicle
Experimental: as §1
Eight-weeks old female SJL/L mice were immunized on Day 1 with an emulsion of PLP139-151/CFA and injected with pertussis toxin to induce disease. At the start of clinical signs (Days 9-10), the animals were administered with compound 6 (Glx-077) at a daily dose of 10 mg/Kg or 50 mg/Kg, or with a vehicle (15% HP-β-CD in water) until completion of trial (Day 57). A graph, summarizing the results of this experiment is represented in FIG. 1A.

[5] = Mus musculus, Shh Light2, in-vitro, read-out: concentration inhibiting 50% of Gli1 activity
[6] = Mus musculus, Shh Light2, Shh Light 2 cell line, Purmorphamine-induced, 24 hours, read-out: Luciferase cell based IC50
[7] = Shh Light 2 cell line, Purmorphamine-induced, 24 hours, read-out: Luciferase cell based IC50

SMILES: Cn1c(-c2ccccc2Cl)nc2c1CN(Cc1ncnc3ccccc13)CC2 [Compound 13]
- IC50 [1, 5]: < 0.017 µM

SMILES: COc1ccc(C#N)c2c1CN(C1CCc3nn(-c4ccccc4Cl)c(C)c3C1)C2 (centres unmarked) [Glx-341]
- IC50 [1, 6]: 0.0167 µM

SMILES: COc1cccc2c1CN([C@H]1CCc3nn(-c4ccccc4Cl)c(C)c3[C@@H]1O)C2 [Glx-344A]
- IC50 [1, 6]: 0.172 µM

SMILES: COc1cccc2c1CN(C1CCc3nn(-c4ccccc4Cl)c(C)c3[C@@H]1O)C2 (some centres unmarked) [Glx-344]
- IC50 [1, 6]: 0.385 µM

SMILES: COc1cccc2c1CC(N1CCc3nn(-c4ccccc4Cl)c(C)c3C1)C2 (centres unmarked) [Glx-369]
- IC50 [1, 6]: 0.073 µM

SMILES: Cc1c2c(nn1-c1ccccc1Cl)CCC(N1Cc3cccc(C#N)c3C1)C2 (centres unmarked) [Glx-322]
- IC50 [1, 6]: 0.012 µM

SMILES: Cc1nc(CN2CCc3nc(-c4ccccc4Cl)n(C)c3C2)nc2ccccc12 [Compound 12]
- IC50 ([1]; Mus musculus, Shh Light2, benzyl series compounds, read-out: in-vitro efficacy IC50): 0.0056 µM

SMILES: Cc1c2c(nn1-c1ccccc1Cl)CCC(N1Cc3c(F)ccc(C#N)c3C1)C2 (centres unmarked) [Glx-308]
- IC50 [1, 6]: 0.055 µM

SMILES: COc1cccc2c1CN(C1CCc3nn(-c4ccccc4Cl)c(C)c3C1)C2 (centres unmarked) [Glx-088RS]
- AUCINF-plasma ([2]; PO, 10 mg/Kg): 748 ng·h/mL
- T½ ([2]; PO, 10 mg/Kg): 1.99 h
- Brain levels 2 h post PO administration ([2]; PO, 10 mg/Kg): 211 ng/g
- Brain/plasma ratio (2 h) ([2]; PO, 10 mg/Kg): 129%
- Cmax ([2]; PO, 10 mg/Kg): 698
- IC50 [1, 7]: 0.0071 µM

SMILES: Cn1c(-c2ccccc2Cl)nc2c1CN(Cc1nc3ccccc3s1)CC2 [Compound 14]
- IC50 [1, 5]: < 0.017 µM

SMILES: Cn1c(-c2ccccc2Cl)nc2c1CN(Cc1nc3cccnc3o1)CC2 [Compound 6]
- clinical outcome / clinical score (FIG. 1B) [3]: improvements in clinical outcome
- clinical outcome (FIG. 1A) [4]: improvements in clinical outcome

SMILES: COc1cccc2c1CN(C1CCc3nn(-c4ccccc4Cl)c(C)c3C1=O)C2 (centres unmarked) [Glx-402]
- IC50 [1, 6]: 0.43 µM

SMILES: Cn1c(-c2ccccc2Cl)nc2c1CN(Cc1cnc3ccccc3n1)CC2 [Compound 11]
- IC50 [1, 5]: < 0.017 µM

SMILES: COc1cccc2c1CN(C1CCc3nn(-c4ccccc4Cl)c(C)c3C1)C2 (centres unmarked) [Glx-088P3]
- AUCINF-plasma ([2]; IV, 2 mg/Kg): 517 ng·h/mL
- T½ ([2]; IV, 2 mg/Kg): 1.53 h
- % F ([2]; PO, 10 mg/Kg): 38%
- AUCINF-plasma ([2]; PO, 10 mg/Kg): 517 ng·h/mL
- T½ ([2]; PO, 10 mg/Kg): 1.5 h
- Brain levels 2 h post PO administration ([2]; PO, 10 mg/Kg): 123 ng/g
- Brain/plasma ratio (2 h) ([2]; PO, 10 mg/Kg): 208%
- Cmax ([2]; PO, 10 mg/Kg): 268
- % F ([2]; PO, 30 mg/Kg): 65.6%
- AUCINF-plasma ([2]; PO, 30 mg/Kg): 2674 ng·h/mL
- T½ ([2]; PO, 30 mg/Kg): 1.69 h
- Brain levels 2 h post PO administration ([2]; PO, 30 mg/Kg): 1104 ng/g
- Brain/plasma ratio (2 h) ([2]; PO, 30 mg/Kg): 236%
- Cmax ([2]; PO, 30 mg/Kg): 1199
- IC50 [1, 7]: 0.00018 µM
- clinical outcome / clinical score (FIG. 1B) [3]: improvements in clinical outcome

From patent US20230242511A1, “FUSED PYRAZOLE AND IMIDAZOLE BASED COMPOUNDS AND USE THEREOF AS GLI1 INHIBITORS” (GLIXOGEN THERAPEUTICS LTD., priority 2020, published 2023)
